Experimental data taken from patent US10988477B2 (Merck Patent GmbH, priority 2018, dated 2021).
pIC50, pKi: −log10 of the molar value.

Assays:
GCN2 kinase = GCN2 kinase (Homo sapiens, UniProt Q9P2K8); test: GCN2 enzyme inhibition assay (Transcreener ADP2 fluorescence polarization); type: biochemical; conditions: Enzyme activity for compounds of Formula IV; Ki(app), 280 μM ATP, 25° C.
Summary of the method: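 Run at 25 °C in 25 mM Tris-HCl pH 7.5, 50 mM NaCl, 10 mM MgCl2, 1 mM DTT with 4 nM GCN2, 280 μM ATP and 200 μM (RS)7 peptide; compound (0–8 μM final) preincubated 10 min, reaction 1 h. ADP read by antibody/tracer FP; IC50 and Ki(app) from tight-binding fit.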

[1] = target: intracellular GCN2 (phosphorylation of the GCN2 substrate eIF2α) (Homo sapiens, UniProt Q9P2K8); test: GCN2 cellular inhibition assay (AlphaScreen SureFire P-eIF2α Ser51, borrelidin-treated U2OS cells); type: cell-based; conditions: compounds of Formula IV; biomarker assay, phosphorylated eIF2α Ser51 in borrelidin-treated U2OS cells
intracellular GCN2 (phosphorylation of the GCN2 substrate eIF2α), sequence (Q9P2K8 whole entry): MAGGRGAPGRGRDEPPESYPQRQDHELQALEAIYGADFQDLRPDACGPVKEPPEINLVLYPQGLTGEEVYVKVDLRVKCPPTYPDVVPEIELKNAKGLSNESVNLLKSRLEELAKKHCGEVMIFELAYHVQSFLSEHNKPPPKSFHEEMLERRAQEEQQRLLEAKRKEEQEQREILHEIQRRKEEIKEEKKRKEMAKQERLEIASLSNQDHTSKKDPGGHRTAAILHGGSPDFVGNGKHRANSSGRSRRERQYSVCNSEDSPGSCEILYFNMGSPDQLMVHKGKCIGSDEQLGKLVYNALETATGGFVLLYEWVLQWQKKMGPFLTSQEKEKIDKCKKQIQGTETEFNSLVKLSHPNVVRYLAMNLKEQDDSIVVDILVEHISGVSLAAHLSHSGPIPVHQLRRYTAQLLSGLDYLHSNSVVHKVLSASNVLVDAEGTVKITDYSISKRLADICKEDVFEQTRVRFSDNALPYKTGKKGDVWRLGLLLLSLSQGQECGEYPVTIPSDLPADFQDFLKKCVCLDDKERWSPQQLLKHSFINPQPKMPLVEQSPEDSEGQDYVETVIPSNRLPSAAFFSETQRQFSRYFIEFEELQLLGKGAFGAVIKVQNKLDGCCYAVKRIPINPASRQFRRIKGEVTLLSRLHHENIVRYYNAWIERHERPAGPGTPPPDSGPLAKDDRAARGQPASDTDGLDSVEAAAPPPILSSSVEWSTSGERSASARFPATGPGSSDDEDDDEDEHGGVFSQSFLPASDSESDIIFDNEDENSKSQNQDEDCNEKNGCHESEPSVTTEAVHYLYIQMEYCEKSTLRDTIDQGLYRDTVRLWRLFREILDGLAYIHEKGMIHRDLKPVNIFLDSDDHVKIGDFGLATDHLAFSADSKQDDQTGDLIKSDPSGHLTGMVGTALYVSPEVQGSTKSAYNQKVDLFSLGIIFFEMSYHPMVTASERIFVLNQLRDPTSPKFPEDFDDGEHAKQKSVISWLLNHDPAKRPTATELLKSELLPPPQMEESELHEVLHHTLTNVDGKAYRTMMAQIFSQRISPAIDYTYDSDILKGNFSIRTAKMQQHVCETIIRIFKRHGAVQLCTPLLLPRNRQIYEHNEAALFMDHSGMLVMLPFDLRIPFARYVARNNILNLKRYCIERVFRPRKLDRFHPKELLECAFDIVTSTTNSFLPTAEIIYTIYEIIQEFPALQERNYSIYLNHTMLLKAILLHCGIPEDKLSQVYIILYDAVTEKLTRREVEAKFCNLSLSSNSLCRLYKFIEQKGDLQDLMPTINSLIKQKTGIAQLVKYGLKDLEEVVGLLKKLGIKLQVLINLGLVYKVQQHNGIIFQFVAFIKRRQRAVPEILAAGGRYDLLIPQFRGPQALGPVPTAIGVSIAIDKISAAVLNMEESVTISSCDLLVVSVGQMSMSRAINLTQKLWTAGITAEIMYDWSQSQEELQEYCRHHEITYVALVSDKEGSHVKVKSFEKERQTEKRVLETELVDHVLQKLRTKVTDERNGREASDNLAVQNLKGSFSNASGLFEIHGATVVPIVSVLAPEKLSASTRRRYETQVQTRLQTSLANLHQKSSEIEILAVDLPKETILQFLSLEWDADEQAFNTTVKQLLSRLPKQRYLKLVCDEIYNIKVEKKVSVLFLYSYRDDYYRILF
Summary of the method: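 Read-out: AlphaScreen SureFire phospho-eIF2α (Ser51) signal in U2OS lysates. Cells get 4-fold compound dilutions (top 40 μM final) plus 10 μM borrelidin, 1 h, 37 °C. Percent inhibition is relative to borrelidin-alone controls.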

GCN2 kinase, sequence (Q9P2K8 whole entry): as above

Row | SMILES | pKi (GCN2 kinase) | pIC50 [1]
1 | CC1C(c2cn[nH]c2)OCCN1c1ccnc(-c2cnc3cnc(Cl)cn23)n1 (single isomer, unassigned) [IV-245, 4-(2-(6-Chloroimidazo[1,2-a]pyrazin-3-yl)pyrimidin-4-yl)-3-methyl-2-(1H-pyrazol-4-yl)morpholine] | 6.00 to 7.00 | < 5.30
2 | CC1CN(c2ccnc(-c3cnc4cnc(Cl)cn34)n2)C(C)C(c2cn[nH]c2)N1 (single isomer, unassigned) [IV-247, 6-Chloro-3-(4-(2,5-dimethyl-3-(1H-pyrazol-4-yl)piperazin-1-yl)pyrimidin-2-yl)imidazo[1,2-a]pyrazine] | > 8.00 | > 6.30
3 | CC1CN(c2ccnc(-c3cnc4cnc(Br)cn34)n2)C(C)C(c2cn[nH]c2)N1 (single isomer, unassigned) [IV-288, 6-Bromo-3-(4-(2,5-dimethyl-3-(1H-pyrazol-4-yl)piperazin-1-yl)pyrimidin-2-yl)imidazo[1,2-a]pyrazine] | > 8.00 | > 6.30
4 | CC1CC(c2cn[nH]c2)C(C)N(c2ccnc(-c3cnc4cnc(C(F)(F)F)cn34)n2)C1 (single isomer, unassigned) [IV-311] | > 8.00 | > 6.30
5 | CC1C(c2cn[nH]c2)OCCN1c1ccnc(-c2cnc3cnc(C(F)(F)F)cn23)n1 (single isomer, unassigned) [IV-318, 3-Methyl-2-(1H-pyrazol-4-yl)-4-(2-(6-(trifluoromethyl)imidazo[1,2-a]pyrazin-3-yl)pyrimidin-4-yl)morpholine] | > 8.00 | > 6.30
6 | CC1CN(c2ccnc(-c3cnc4cnc(C(F)(F)F)cn34)n2)C(C)C(c2cn[nH]c2)N1 (single isomer, unassigned) [IV-345, 3-(4-(2,5-Dimethyl-3-(1H-pyrazol-4-yl)piperazin-1-yl)pyrimidin-2-yl)-6-(trifluoromethyl)imidazo[1,2-a]pyrazine] | 7.00 to 8.00 | 5.30 to 6.30
7 | CC1C(c2cn[nH]c2)NCCN1c1ccnc(-c2cnc3cnc(Br)cn23)n1 (single isomer, unassigned) [IV-350, 6-Bromo-3-(4-(2-methyl-3-(1H-pyrazol-4-yl)piperazin-1-yl)pyrimidin-2-yl)imidazo[1,2-a]pyrazine] | 6.00 to 7.00 | 5.30 to 6.30
8 | CC1C(c2cn[nH]c2)NCCN1c1ccnc(-c2cnc3cnc(Br)cn23)n1 (single isomer, unassigned) [IV-351, 6-Bromo-3-(4-(2-methyl-3-(1H-pyrazol-4-yl)piperazin-1-yl)pyrimidin-2-yl)imidazo[1,2-a]pyrazine] | > 8.00 | > 6.30
9 | CC1C(c2cn[nH]c2)NCCN1c1ccnc(-c2cnc3cnc(C(F)(F)F)cn23)n1 (single isomer, unassigned) [IV-357, 3-(4-(2-Methyl-3-(1H-pyrazol-4-yl)piperazin-1-yl)pyrimidin-2-yl)-6-(trifluoromethyl)imidazo[1,2-a]pyrazine] | 6.00 to 7.00 | < 5.30
10 | CC1C(c2cn[nH]c2)NCCN1c1ccnc(-c2cnc3cnc(C(F)(F)F)cn23)n1 (single isomer, unassigned) [IV-358, 3-(4-(2-Methyl-3-(1H-pyrazol-4-yl)piperazin-1-yl)pyrimidin-2-yl)-6-(trifluoromethyl)imidazo[1,2-a]pyrazine] | > 8.00 | 5.30 to 6.30
11 | Brc1cn2c(-c3nccc(N4CCCC(c5cn[nH]c5)C4)n3)cnc2cn1 (single isomer, unassigned) [IV-360, 3-(4-(3-(1H-Pyrazol-4-yl)piperidin-1-yl)pyrimidin-2-yl)-6-bromoimidazo[1,2-a]pyrazine] | > 8.00 | > 6.30
12 | Brc1cn2c(-c3nccc(N4CCCC(c5cn[nH]c5)C4)n3)cnc2cn1 (single isomer, unassigned) [IV-361, 3-(4-(3-(1H-Pyrazol-4-yl)piperidin-1-yl)pyrimidin-2-yl)-6-bromoimidazo[1,2-a]pyrazine] | > 8.00 | > 6.30
13 | Brc1cn2c(-c3nccc(N4CCCC(c5c[nH]cn5)C4)n3)cnc2cn1 (single isomer, unassigned) [IV-362, 3-(4-(3-(1H-Imidazol-4-yl)piperidin-1-yl)pyrimidin-2-yl)-6-bromoimidazo[1,2-a]pyrazine] | 7.00 to 8.00 | 5.30 to 6.30
14 | CC1CN(c2ccnc(-c3cnc4cnc(Br)cn34)n2)CC(c2cn[nH]c2)N1 (single isomer, unassigned) [IV-364, 6-Bromo-3-(4-(3-methyl-5-(1H-pyrazol-4-yl)piperazin-1-yl)pyrimidin-2-yl)imidazo[1,2-a]pyrazine] | 7.00 to 8.00 | 5.30 to 6.30
15 | CC1CN(c2ccnc(-c3cnc4cnc(Br)cn34)n2)CC(c2cn[nH]c2)N1 (single isomer, unassigned) [IV-365, 6-Bromo-3-(4-(3-methyl-5-(1H-pyrazol-4-yl)piperazin-1-yl)pyrimidin-2-yl)imidazo[1,2-a]pyrazine] | > 8.00 | 5.30 to 6.30
16 | CC1CC(CS(C)(=N)=O)C(C)N(c2ccnc(-c3cnc4cnc(C(F)F)cn34)n2)C1 (single isomer, unassigned) [IV-366, ((1-(2-(6-(Difluoromethyl)imidazo[1,2-a]pyrazin-3-yl)pyrimidin-4-yl)-2,5-dimethylpiperidin-3-yl)methyl)(imino)(methyl)-λ^6-sulfanone] | 6.00 to 7.00 | < 5.30
17 | CC1CC(CS(C)(=N)=O)C(C)N(c2ccnc(-c3cnc4cnc(C(F)F)cn34)n2)C1 (single isomer, unassigned) [IV-368, ((1-(2-(6-(Difluoromethyl)imidazo[1,2-a]pyrazin-3-yl)pyrimidin-4-yl)-2,5-dimethylpiperidin-3-yl)methyl)(imino)(methyl)-λ^6-sulfanone] | 6.00 to 7.00 | < 5.30
18 | CC1CN(c2nccc(-c3cnc4cnc(C(F)(F)F)cn34)n2)C(C)C(c2cn[nH]c2)N1 (single isomer, unassigned) [IV-369, 3-(2-(2,5-Dimethyl-3-(1H-pyrazol-4-yl)piperazin-1-yl)pyrimidin-4-yl)-6-(trifluoromethyl)imidazo[1,2-a]pyrazine] | > 8.00 | 5.30 to 6.30
19 | Cc1nc(C2CCCN(c3ccnc(-c4cnc5cnc(Br)cn45)n3)C2)c[nH]1 (single isomer, unassigned) [IV-374, 6-Bromo-3-(4-(3-(2-methyl-1H-imidazol-4-yl)piperidin-1-yl)pyrimidin-2-yl)imidazo[1,2-a]pyrazine] | 7.00 to 8.00 | 5.30 to 6.30
20 | Cc1nc(C2CCCN(c3ccnc(-c4cnc5cnc(Br)cn45)n3)C2)c[nH]1 (single isomer, unassigned) [IV-375, 6-Bromo-3-(4-(3-(2-methyl-1H-imidazol-4-yl)piperidin-1-yl)pyrimidin-2-yl)imidazo[1,2-a]pyrazine] | > 8.00 | > 6.30
21 | CC1CN(c2ccnc(-c3cnc4cnc(Br)cn34)n2)C(C)C(c2c[nH]cn2)N1 (single isomer, unassigned) [IV-376, 3-(4-(3-(1H-Imidazol-4-yl)-2,5-dimethylpiperazin-1-yl)pyrimidin-2-yl)-6-bromoimidazo[1,2-a]pyrazine] | > 8.00 | 5.30 to 6.30
22 | CC1CN(c2ccnc(-c3cnc4cnc(Br)cn34)n2)C(C)C(c2c[nH]cn2)N1 (single isomer, unassigned) [IV-377, 3-(4-(3-(1H-Imidazol-4-yl)-2,5-dimethylpiperazin-1-yl)pyrimidin-2-yl)-6-bromoimidazo[1,2-a]pyrazine] | 6.00 to 7.00 | 5.30 to 6.30
